The subject of series [1] is Mycobacteroides abscessus. The series is described as follows: Antimycobacterial activity against Mycobacterium abscessus ATCC 19977 assessed as inhibition zone diameter at 3.125 ng after 3 days by disc diffusion method. It is filed as functional.
Series [2] in a line: Antimycobacterial activity against Mycobacterium abscessus subsp. massiliense assessed as reduction in microbial growth by CLSI method. It is filed as functional. The settings on record: Mycobacteroides abscessus.
Series [3] in a line: Antimycobacterial activity against Mycobacterium abscessus subsp. bolletii assessed as reduction in microbial growth by CLSI method. The class given is functional. The settings on record: Mycobacteroides abscessus.
In series [4] the test system is Mycolicibacterium fortuitum. The series can be described thus: Antimycobacterial activity against Mycobacterium fortuitum assessed as reduction in microbial growth by CLSI method. The class given is functional.
In series [5] the test system is Mycobacteroides chelonae. The series can be described thus: Antimycobacterial activity against Mycobacterium chelonae assessed as reduction in microbial growth by CLSI method. It is filed as functional.
The nature of series [6]: Antimycobacterial activity against Mycobacterium abscessus subsp. abscessus assessed as reduction in microbial growth by CLSI method. It is filed as functional. As to conditions: Mycobacteroides abscessus.
The subject of series [7] is Mycolicibacterium smegmatis. The series can be described thus: Antimycobacterial activity against Mycobacterium smegmatis assessed as reduction in microbial growth by CLSI method. It is filed as functional.
Series [8] has as its system Mycobacteroides abscessus. The series can be described thus: Antimycobacterial activity against Mycobacterium abscessus ATCC 19977 assessed as inhibition zone diameter at 800 ng after 3 days by disc diffusion method. It is filed as functional. In general terms: A growth-free zone around the sample is the usual read-out of agar diffusion tests.
The subject of series [9] is Mycobacteroides abscessus. The series is described as follows: Antimycobacterial activity against Mycobacterium abscessus ATCC 19977 assessed as inhibition zone diameter at 400 ng after 3 days by disc diffusion method. It is filed as functional.
Series [10] relates to Mycobacteroides abscessus. The series is described as follows: Antimycobacterial activity against Mycobacterium abscessus ATCC 19977 assessed as inhibition zone diameter at 200 ng after 3 days by disc diffusion method. The class given is functional.
In series [11] the test system is Mycobacteroides abscessus. The series can be described thus: Antimycobacterial activity against Mycobacterium abscessus ATCC 19977 assessed as inhibition zone diameter at 100 ng after 3 days by disc diffusion method. The class given is functional.
The subject of series [12] is Mycobacteroides abscessus. The series is described as follows: Antimycobacterial activity against Mycobacterium abscessus ATCC 19977 assessed as inhibition zone diameter at 50 ng after 3 days by disc diffusion method. The class given is functional.
The subject of series [13] is Mycobacteroides abscessus. The series can be described thus: Antimycobacterial activity against Mycobacterium abscessus ATCC 19977 assessed as inhibition zone diameter at 25 ng after 3 days by disc diffusion method. The class given is functional.
For series [14], the system named is Mycobacteroides abscessus. The series can be described thus: Antimycobacterial activity against Mycobacterium abscessus ATCC 19977 assessed as inhibition zone diameter at 12.5 ng after 3 days by disc diffusion method. The class given is functional.
For series [15], the system named is Mycobacteroides abscessus. The series can be described thus: Antimycobacterial activity against Mycobacterium abscessus ATCC 19977 assessed as inhibition zone diameter at 6.25 ng after 3 days by disc diffusion method. It is filed as functional.
The subject of series [16] is Mycobacteroides abscessus. The series can be described thus: Antimycobacterial activity against Mycobacterium abscessus ATCC 19977 assessed as inhibition zone diameter at 1.56 ng after 3 days by disc diffusion method. It is filed as functional.
The test system of series [17] is Mycobacteroides abscessus. The series can be described thus: Antimycobacterial activity against Mycobacterium abscessus FM0058 clinical isolate assessed as inhibition zone diameter at 800 ng after 3 days by disc diffusion method. The class given is functional.
For series [18], the system named is Mycobacteroides abscessus. The series is described as follows: Antimycobacterial activity against Mycobacterium abscessus FM0058 clinical isolate assessed as inhibition zone diameter at 400 ng after 3 days by disc diffusion method. It is filed as functional.
Series [19] deals with Mycobacteroides abscessus. The series is described as follows: Antimycobacterial activity against Mycobacterium abscessus FM0058 clinical isolate assessed as inhibition zone diameter at 200 ng after 3 days by disc diffusion method. It is filed as functional.
The subject of series [20] is Mycobacteroides abscessus. The series is described as follows: Antimycobacterial activity against Mycobacterium abscessus FM0058 clinical isolate assessed as inhibition zone diameter at 100 ng after 3 days by disc diffusion method. The class given is functional.
For series [21], the system named is Mycobacteroides abscessus. The series is described as follows: Antimycobacterial activity against Mycobacterium abscessus FM0058 clinical isolate assessed as inhibition zone diameter at 50 ng after 3 days by disc diffusion method. The class given is functional.
Series [22] has as its system Mycobacteroides abscessus. The series can be described thus: Antimycobacterial activity against Mycobacterium abscessus FM0058 clinical isolate assessed as inhibition zone diameter at 25 ng after 3 days by disc diffusion method. It is filed as functional.
Series [23] concerns Mycobacteroides abscessus. The series is described as follows: Antimycobacterial activity against Mycobacterium abscessus FM0058 clinical isolate assessed as inhibition zone diameter at 12.5 ng after 3 days by disc diffusion method. The class given is functional.
Series [24] deals with Mycobacteroides abscessus. The series is described as follows: Antimycobacterial activity against Mycobacterium abscessus FM0058 clinical isolate assessed as inhibition zone diameter at 6.25 ng after 3 days by disc diffusion method. The class given is functional.
The subject of series [25] is Mycobacteroides abscessus. The series is described as follows: Antimycobacterial activity against Mycobacterium abscessus FM0058 clinical isolate assessed as inhibition zone diameter at 3.125 ng after 3 days by disc diffusion method. The class given is functional.
For series [26], the system named is Mycobacteroides abscessus. The series can be described thus: Antimycobacterial activity against Mycobacterium abscessus FM0058 clinical isolate assessed as inhibition zone diameter at 1.56 ng after 3 days by disc diffusion method. It is filed as functional.
The subject of series [27] is Mycobacteroides abscessus. The series is described as follows: Antimycobacterial activity against Mycobacterium abscessus ATCC 19977 assessed as inhibition zone diameter at <3 ng after 3 days by disc diffusion method. The class given is functional, organism-based.
Series [28] has as its system Mycobacteroides abscessus. The series can be described thus: Antimycobacterial activity against Mycobacterium abscessus FM0058 clinical isolate assessed as inhibition zone diameter at <3 ng after 3 days by disc diffusion method. It is filed as functional, organism-based.
Series [29] in a line: Drug metabolism in Mycobacterium abscessus ATCC 19977 assessed as adenine ribosylated diphosphate derivative formation by LC/MS analysis. The settings on record: Mycobacteroides abscessus. It is filed as ADME.

The text below walks through data of ChEMBL document CHEMBL4433259, “Rifamycin derivatives active against pathogenic rapidly-growing mycobacteria” (Bioorg Med Chem Lett, 2019).

Molecules are shown by their SMILES. Calls of active or inactive are those of the source. The calls are words filed in the database; no cut-off is given here. Some results are limits rather than exact numbers.

Usually MIC stands for the lowest concentration that inhibits growth of the organism. `CO[C@H]1/C=C/O[C@@]2(C)Oc3c(C)c(O)c4c(O)c(c(/C=N/N5CCN(C)CC5)c(O)c4c3C2=O)NC(=O)/C(C)=C\C=C\[C@H](C)[C@H](O)[C@@H](C)[C@@H](O)[C@@H](C)[C@H](OC(C)=O)[C@@H]1C` [RIFAMPIN]: the “diameter of the inhibition zone (DIZ)” value in [1], in series [8], in series [9], in series [10], in series [11] and in [12] was 0 mm in each case. In addition, the “diameter of the inhibition zone (DIZ)” value in series [13], in series [14], in series [15], in series [16], in [17] and in series [18] was 0 mm each time. The “diameter of the inhibition zone (DIZ)” value in series [19], in series [20], in series [21], in [22], in series [23] and in series [24] was 0 mm throughout. Moreover, the “diameter of the inhibition zone (DIZ)” value in [25] and in [26] was 0 mm each time. Besides, the MIC in series [2] was > 64 µg/mL; in [3] it was > 64 µg/mL; in series [4] it was > 64 µg/mL; in series [5], > 64 µg/mL; in series [6], > 64 µg/mL; in series [7], 32 µg/mL. Moreover, the “diameter of the inhibition zone (DIZ)” value in series [27] and in series [28] was “inactive” each time. Also, in series [29], the Drug metabolism entry was “Metabolite_Notdetected”.

Take `COc1ccc(CNC(=O)O[C@H]2[C@H](C)[C@H](O)[C@H](C)[C@@H](O)[C@@H](C)/C=C/C=C(/C)C(=O)NC3=C(N4CCOCC4)C(=O)c4c(c(O)c(C)c5c4C(=O)[C@@](C)(O/C=C/[C@H](OC)[C@H]2C)O5)C3=O)cc1`: the MIC is 8 µg/mL in series [2]; 16 µg/mL in series [3]; 1 µg/mL in [4]; > 64 µg/mL in [5]; 64 µg/mL in [6]; 0.06 µg/mL in [7].

As for `COc1ccccc1-c1cc(CNC(=O)O[C@H]2[C@H](C)[C@H](O)[C@H](C)[C@@H](O)[C@@H](C)/C=C/C=C(/C)C(=O)NC3=C(N4CCOCC4)C(=O)c4c(c(O)c(C)c5c4C(=O)[C@@](C)(O/C=C/[C@H](OC)[C@H]2C)O5)C3=O)on1`, the MIC amounted to 64 µg/mL in [2]; 16 µg/mL in series [3]; 0.25 µg/mL in series [4]; 64 µg/mL in [5]; 64 µg/mL in series [6]; 0.12 µg/mL in series [7].

`CO[C@H]1/C=C/O[C@@]2(C)Oc3c(C)c(O)c4c(c3C2=O)C(=O)C(N2CCOCC2)=C(NC(=O)/C(C)=C\C=C\[C@H](C)[C@H](O)[C@@H](C)[C@@H](O)[C@@H](C)[C@H](OC(=O)NCCN(C(C)C)C(C)C)[C@@H]1C)C4=O`: the MIC in series [2] turned out to be 1 µg/mL; in series [3], 0.25 µg/mL; in [4], 8 µg/mL; in series [5], 1 µg/mL; in series [6], 0.5 µg/mL.

For `CO[C@H]1/C=C/O[C@@]2(C)Oc3c(C)c(O)c4c(c3C2=O)C(=O)C(N2CCOCC2)=C(NC(=O)/C(C)=C\C=C\[C@H](C)[C@H](O)[C@@H](C)[C@@H](O)[C@@H](C)[C@H](OC(=O)NCc2cc(-c3ccccc3)no2)[C@@H]1C)C4=O`, the “diameter of the inhibition zone (DIZ)” value worked out at 0 mm in [1]; 24 mm in [8]; 20 mm in [9]; 16 mm in [10]; 12 mm in [11]; 7 mm in [12]. In addition, the “diameter of the inhibition zone (DIZ)” value in [13] was 0 mm; in [14] it was 0 mm; in series [15] it was 0 mm; in series [16] it was 0 mm; in [17] it was >30 mm; in series [18], 26 mm. The “diameter of the inhibition zone (DIZ)” value in series [19] came to 21 mm; in [20] it was 17 mm; in [21], 13 mm; in series [22] it was 7 mm; in series [23] it was 0 mm; in [24] it was 0 mm. For the same molecule, the “diameter of the inhibition zone (DIZ)” value in [25] and in series [26] was 0 mm each time. Also, the MIC in [2] is 0.5 µg/mL; in series [3], 0.125 µg/mL; in series [4], 0.0625 µg/mL; in series [5], 0.5 µg/mL; in [6] it was 0.5 µg/mL. The “diameter of the inhibition zone (DIZ)” value in [27] and in [28] was “inactive” throughout.

For `CO[C@H]1/C=C/O[C@@]2(C)Oc3c(C)c(O)c4c(c3C2=O)C(=O)C(N2CCOCC2)=C(NC(=O)/C(C)=C\C=C\[C@H](C)[C@H](O)[C@@H](C)[C@@H](O)[C@@H](C)[C@H](OC(=O)NCc2ccc(N(C)C)cc2)[C@@H]1C)C4=O`, the MIC was 8 µg/mL in series [2]; 8 µg/mL in series [3]; 1 µg/mL in series [4]; 16 µg/mL in [5]; 8 µg/mL in series [6]; 0.06 µg/mL in [7].

With `CO[C@H]1/C=C/O[C@@]2(C)Oc3c(C)c(O)c4c(c3C2=O)C(=O)C(N2CCOCC2)=C(NC(=O)/C(C)=C\C=C\[C@H](C)[C@H](O)[C@@H](C)[C@@H](O)[C@@H](C)[C@H](OC(=O)NCc2cc(-c3ccccn3)no2)[C@@H]1C)C4=O`, the “diameter of the inhibition zone (DIZ)” value in [1] was 0 mm; in series [8], 27 mm; in series [9], 24 mm; in series [10] it was 20 mm; in series [11], 16 mm; in [12], 14 mm. Moreover, the “diameter of the inhibition zone (DIZ)” value is 0 mm in [13]; 0 mm in [14]; 0 mm in [15]; 0 mm in series [16]; >30 mm in series [17]; 30 mm in [18]. Further, the “diameter of the inhibition zone (DIZ)” value turned out to be 25 mm in [19]; 20 mm in series [20]; 9 mm in series [21]; 0 mm in [22]; 0 mm in series [23]; 0 mm in [24]. Moreover, the “diameter of the inhibition zone (DIZ)” value in series [25] and in series [26] was 0 mm each time. The MIC in [2] stood at 8 µg/mL; in [3], 8 µg/mL; in series [4] it was 1 µg/mL; in [5], 64 µg/mL; in [6], 8 µg/mL; in [7], 0.5 µg/mL. In addition, the “diameter of the inhibition zone (DIZ)” value in [27] and in series [28] was “inactive” throughout.
